tested on: Bovine cardiac myofibrils; assay: In vitro model of dose-dependent myofibril ATPase modulation (AC1.4, pyruvate kinase/lactate dehydrogenase-coupled ATPase assay at pCa25); format: biochemical; conditions: concentration at which ATPase activity was 1.4-fold higher than the bottom of the dose curve, mean of a minimum of two independent tests
In short: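 Coupled-enzyme ATPase on bovine heart myofibrils, 1 mM ATP, EGTA/CaCl2 buffered; 340 nm readout.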

COc1ccc(S(C)(=O)=O)cc1C(=O)N1CCC[C@@H]1C(=O)N[C@@H](c1ccc(C(F)(F)F)cc1F)C1CC1 [Example 602, N-((R)-cyclopropyl(2-fluoro-4-(trifluoromethyl)phenyl)methyl)-1-(2-methoxy-5-(methylsulfonyl)benzoyl)-D-prolinamide] and COc1ccc(S(C)(=O)=O)cc1C(=O)N1[C@@H](C(=O)N[C@@H](c2ccc(C(F)(F)F)cc2F)C2CC2)C[C@H]2C[C@H]21 [Example 612, (1R,3R,5R)-N-((R)-cyclopropyl(2-fluoro-4-(trifluoromethyl)phenyl)methyl)-2-(2-methoxy-5-(methylsulfonyl)benzoyl)-2-azabicyclo[3.1.0]hexane-3-carboxamide] are within 1.5-fold of each other in AC1.4: 3.4595 µM for the first, 3.527 µM for the second.

Cc1cc(C(=O)N2[C@@H](C(=O)N[C@@H](c3cc(F)c(Cl)cc3F)C3COC3)C[C@H]3C[C@H]32)cc(C)n1 [Example 603, (1R,3R,5R)-N-((R)-(4-chloro-2,5-difluorophenyl)(3-oxetanyl)methyl)-2-((2,6-dimethyl-4-pyridinyl)carbonyl)-2-azabicyclo[3.1.0]hexane-3-carboxamide] and Cc1cc(C(=O)N2[C@@H](C(=O)N[C@@H](c3cc(F)c(Cl)cc3F)C3COC3)C[C@H]3C[C@H]32)ccn1 [Example 621, (1R,3R,5R)-N-((R)-(4-chloro-2,5-difluorophenyl)(3-oxetanyl)methyl)-2-((2-methyl-4-pyridinyl)carbonyl)-2-azabicyclo[3.1.0]hexane-3-carboxamide] are within 1.5-fold of each other in AC1.4: 3.6775 µM for the first, 3.9478 µM for the second.

N#CC1(c2cccc(C(=O)N3CCC[C@@H]3C(=O)N[C@@H](c3ccc(C(F)(F)F)cc3F)C3CC3)c2)CC1 [Example 604, 1-(3-(l-cyanocyclopropyl)benzoyl)-N-((R)-cyclopropyl(2-fluoro-4-(trifluoromethyl)phenyl)methyl)-D-prolinamide] and CS(=O)(=O)c1cccc(C(=O)N2CC3(CCC3)C2C(=O)N[C@@H](c2ccc(C(F)(F)F)cc2F)C2CC2)c1 (stereo partly drawn) [Example 609, N-((R)-cyclopropyl(2-fluoro-4-(trifluoromethyl)phenyl)methyl)-2-(3-(methylsulfonyl)benzoyl)-2-azaspiro[3.3]heptane-1-carboxamide] are within 1.5-fold of each other in AC1.4: 3.679 µM for the first, 3.7443 µM for the second.

O=C(N[C@@H](c1ccc(C(F)(F)F)cc1F)C1CC1)[C@H]1C[C@H]2C[C@H]2N1C(=O)c1ccnc(C(F)F)c1 [Example 605, (1R,3R,5R)-N-((R)-cyclopropyl(2-fluoro-4-(trifluoromethyl)phenyl)methyl)-2-((2-(difluoromethyl)-4-pyridinyl)carbonyl)-2-azabicyclo[3.1.0]hexane-3-carboxamide] and O=C(N[C@@H](c1ccc(C(F)(F)F)cc1F)C1COC1)[C@H]1C[C@H]2C[C@H]2N1C(=O)c1cncc(C2CC2)c1 [Example 611, (1R,3R,5R)-2-((5-cyclopropyl-3-pyridinyl)carbonyl)-N-((R)-(2-fluoro-4-(trifluoromethyl)phenyl)(3-oxetanyl)methyl)-2-azabicyclo[3.1.0]hexane-3-carboxamide] are within 1.5-fold of each other in AC1.4: 3.685 µM for the first, 3.788 µM for the second.

Cc1cccc(CNC(=O)[C@H]2CCCN2C(=O)[C@H]2CCCN(S(=O)(=O)N3CC(C#N)C3)C2)c1F [Example 606, 1-(((3S)-1-((3-cyano-1-azetidinyl)sulfonyl)-3-piperidinyl)carbonyl)-N-(2-fluoro-3-methylbenzyl)-D-prolinamide] and Cc1cccc(F)c1CNC(=O)[C@H]1CCCN1C(=O)[C@H]1CCCN(S(=O)(=O)N2CC(C#N)C2)C1 [Example 607, 1-(((3S)-1-((3-cyano-1-azetidinyl)sulfonyl)-3-piperidinyl)carbonyl)-N-(2-fluoro-6-methylbenzyl)-D-prolinamide] are within 1.5-fold of each other in AC1.4: 3.696 µM for the first, 3.714 µM for the second.

O=C(c1ccccc1)c1cccc(C(=O)N2[C@@H](C(=O)N[C@@H](c3cc(F)c(Cl)cc3F)C3CC3)C[C@H]3C[C@H]32)c1 [Example 608, (1R,3R,5R)-2-(3-benzoylbenzoyl)-N-((R)-(4-chloro-2,5-difluorophenyl)(cyclopropyl)methyl)-2-azabicyclo[3.1.0]hexane-3-carboxamide] and O=C(N[C@@H](c1cc(F)c(C(F)(F)F)cc1F)C1CC1)[C@H]1C[C@H]2C[C@H]2N1C(=O)c1cccc(C(F)(F)F)n1 [Example 615, (1R,3R,5R)-N-((R)-cyclopropyl(2,5-difluoro-4-(trifluoromethyl)phenyl)methyl)-2-((6-(trifluoromethyl)-2-pyridinyl)carbonyl)-2-azabicyclo[3.1.0]hexane-3-carboxamide] are within 1.5-fold of each other in AC1.4: 3.7405 µM for the first, 3.8905 µM for the second.

O=C(NCc1ccc(C(F)(F)F)cc1F)[C@H]1CCCN1C(=O)[C@H]1CCCN(S(=O)(=O)N2CC(O)C2)C1 [Example 610, N-(2-fluoro-4-(trifluoromethyl)benzyl)-1-(((3S)-1-((3-hydroxy-1-azetidinyl)sulfonyl)-3-piperidinyl)carbonyl)-D-prolinamide] and Cc1ccc(Cl)cc1CNC(=O)[C@H]1CCCN1C(=O)[C@H]1CCCN(S(=O)(=O)N2CC(C#N)C2)C1 [Example 618, N-(5-chloro-2-methylbenzyl)-1-(((3S)-1-((3-cyano-1-azetidinyl)sulfonyl)-3-piperidinyl)carbonyl)-D-prolinamide] are within 1.5-fold of each other in AC1.4: 3.7735 µM for the first, 3.9205 µM for the second.

N#CC1CN(S(=O)(=O)N2CCC[C@H](C(=O)N3CCC[C@@H]3C(=O)NCc3ccc(Cl)nc3)C2)C1 [Example 613, N-((6-chloro-3-pyridinyl)methyl)-1-(((3S)-1-((3-cyano-1-azetidinyl)sulfonyl)-3-piperidinyl)carbonyl)-D-prolinamide] and COc1ccc(CNC(=O)[C@H]2CCCN2C(=O)[C@H]2CCCN(S(=O)(=O)N3CC(C#N)C3)C2)c(C)c1 [Example 614, 1-(((3S)-1-((3-cyano-1-azetidinyl)sulfonyl)-3-piperidinyl)carbonyl)-N-(4-methoxy-2-methylbenzyl)-D-prolinamide] are within 1.5-fold of each other in AC1.4: 3.8643 µM for the first, 3.8655 µM for the second.

CCS(=O)(=O)c1cccc(C(=O)N2[C@@H](C(=O)NCc3cc(F)c(Cl)cc3F)C[C@H]3C[C@H]32)c1 [Example 617, (1R,3R,5R)-N-(4-chloro-2,5-difluorobenzyl)-2-(3-(ethylsulfonyl)benzoyl)-2-azabicyclo[3.1.0]hexane-3-carboxamide] and N#CC1CC(S(=O)(=O)c2cccc(C(=O)N3CCCC[C@@H]3C(=O)NCc3ccc(Cl)nc3)c2)C1 (stereo partly drawn) [Example 620, (2R)-N-((6-chloro-3-pyridinyl)methyl)-1-((3-((cis-3-cyanocyclobutyl)sulfonyl)phenyl)carbonyl)-2-piperidinecarboxamide,(2R)-N-((6-chloro-3-pyridinyl)methyl)-1-((3-((trans-3-cyanocyclobutyl)sulfonyl)phenyl)carbonyl)-2-piperidinecarboxamide] are within 1.5-fold of each other in AC1.4: 3.626 µM for the first, 3.94 µM for the second.

CS(=O)(=O)c1cccc(C(=O)N2C[C@H](F)C[C@@H]2C(=O)N[C@@H](c2ccc(C(F)(F)F)cc2F)C2CC2)c1 [Example 619, (4R)-N-((R)-cyclopropyl(2-fluoro-4-(trifluoromethyl)phenyl)methyl)-4-fluoro-1-(3-(methylsulfonyl)benzoyl)-D-prolinamide] showed an AC1.4 of 3.929 µM.
